Assay results taken from ChEMBL document CHEMBL5512682, “Discovery of BMS-986308: A Renal Outer Medullary Potassium Channel Inhibitor for the Treatment of Heart Failure” (J Med Chem, 2024).

What was measured:
[1] = Metabolic stability in rat liver microsomes assessed as parent compound remaining at 10 uM measured after 10 mins in presence of NADPH and GSH by UPLC-MS/MS analysis; assay type: ADME, Microsome; conditions: read-out: Stability
hERG (KCNH2) [2] = biological target: T1, hERG (KCNH2) (Homo sapiens, UniProt Q12809); assay: Inhibition of human ERG expressed in HEK293 cells at 1 uM incubated for 2 to 5 mins by Manual patch clamp assay relative to control; assay type: toxicity, cell-based; conditions: HEK293 cells expressing hERG, time 2-5 min
T1 sequence (Q12809 whole entry): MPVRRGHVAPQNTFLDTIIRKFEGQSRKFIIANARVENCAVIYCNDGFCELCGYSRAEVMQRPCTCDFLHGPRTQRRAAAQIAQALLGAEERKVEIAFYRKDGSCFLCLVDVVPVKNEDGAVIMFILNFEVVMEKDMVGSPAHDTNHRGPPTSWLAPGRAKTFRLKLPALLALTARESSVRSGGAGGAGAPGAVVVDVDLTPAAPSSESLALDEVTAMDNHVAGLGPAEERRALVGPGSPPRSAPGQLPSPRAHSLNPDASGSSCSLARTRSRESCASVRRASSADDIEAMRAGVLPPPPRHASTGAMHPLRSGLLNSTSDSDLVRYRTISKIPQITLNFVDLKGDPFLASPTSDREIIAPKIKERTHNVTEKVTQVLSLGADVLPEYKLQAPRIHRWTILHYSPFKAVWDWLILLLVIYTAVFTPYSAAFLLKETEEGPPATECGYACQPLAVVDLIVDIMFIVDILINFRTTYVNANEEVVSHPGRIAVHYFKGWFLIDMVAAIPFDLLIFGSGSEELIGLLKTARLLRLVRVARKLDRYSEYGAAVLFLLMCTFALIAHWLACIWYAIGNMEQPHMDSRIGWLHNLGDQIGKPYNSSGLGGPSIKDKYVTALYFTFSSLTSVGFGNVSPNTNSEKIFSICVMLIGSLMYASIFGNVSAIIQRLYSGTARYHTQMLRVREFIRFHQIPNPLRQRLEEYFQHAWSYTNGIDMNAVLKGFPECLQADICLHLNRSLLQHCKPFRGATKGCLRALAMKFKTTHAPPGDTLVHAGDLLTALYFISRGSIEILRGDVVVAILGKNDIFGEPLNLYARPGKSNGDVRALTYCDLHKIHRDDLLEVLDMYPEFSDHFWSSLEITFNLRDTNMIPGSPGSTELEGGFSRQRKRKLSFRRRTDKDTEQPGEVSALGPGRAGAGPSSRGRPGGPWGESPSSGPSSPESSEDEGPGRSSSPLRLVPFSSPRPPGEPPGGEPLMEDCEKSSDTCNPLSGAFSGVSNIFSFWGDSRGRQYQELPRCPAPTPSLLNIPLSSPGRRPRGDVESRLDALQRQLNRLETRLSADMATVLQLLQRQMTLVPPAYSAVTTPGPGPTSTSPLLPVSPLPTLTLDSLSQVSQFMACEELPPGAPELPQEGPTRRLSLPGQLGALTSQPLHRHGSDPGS

[3] = Metabolic stability in human liver microsomes assessed as parent compound remaining at 10 uM measured after 10 mins in presence of NADPH and GSH by UPLC-MS/MS analysis; assay type: ADME, Microsome; conditions: read-out: Stability
hERG (KCNH2) [4] = biological target: T1, hERG (KCNH2); assay: Inhibition of human ERG expressed in HEK293 cells at 10 uM incubated for 2 to 5 mins by Manual patch clamp assay relative to control; assay type: toxicity, cell-based; conditions: HEK293 cells expressing hERG, time 2-5 min
[5] = biological target: T2, ATP-sensitive inward rectifier potassium channel 1 (Homo sapiens, UniProt P48048)
T2 sequence (P48048 whole entry): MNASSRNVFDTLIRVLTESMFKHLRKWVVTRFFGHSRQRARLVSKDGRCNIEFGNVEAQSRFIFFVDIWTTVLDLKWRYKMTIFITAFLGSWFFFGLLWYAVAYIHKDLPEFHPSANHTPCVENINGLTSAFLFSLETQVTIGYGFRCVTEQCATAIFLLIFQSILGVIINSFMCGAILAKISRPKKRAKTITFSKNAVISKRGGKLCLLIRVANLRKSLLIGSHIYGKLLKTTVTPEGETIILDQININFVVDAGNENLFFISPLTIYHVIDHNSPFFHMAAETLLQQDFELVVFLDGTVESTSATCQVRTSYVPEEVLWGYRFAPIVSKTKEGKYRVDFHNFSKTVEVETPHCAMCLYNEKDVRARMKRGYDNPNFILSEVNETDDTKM
Description: Inhibition of human ROMK expressed in T-REX-CHO cells incubated for 30 mins by thallium flux assay

[6] = Glutathione reactivity in human liver microsomes assessed as GSH-adduct formation at 10 uM incubated for 60 mins in presence of NADPH and GSH by HPLC-MS analysis; assay type: ADME, Microsome; conditions: 1 h

Row | Structure (SMILES) | remaining at 10 min, 10 µM [1] | remaining at 10 min, 10 µM [3] | IC50 [5] | Activity [6] | inhibition at 1 µM (hERG (KCNH2) [2]) | inhibition at 10 µM (hERG (KCNH2) [4])
1 | Cc1cc(-n2cc(CN3CCCC(c4ccc5c(c4C)COC5=O)C3)cn2)ncc1C#N (stereo not given) | 29% | 59% | – | – | 75% | –
2 | Cc1cc(-n2ncc(CN3C[C@@H](c4ccc5c(c4C)COC5=O)NC(C)(C)C3)n2)ncc1C#N | 100% | 62% | – | – | – | –
3 | Cc1cc(-n2cc(CN3CC(=O)N[C@H](c4ccc5c(c4C)COC5=O)C3)cn2)ncc1C#N | 67% | 64% | – | – | – | 42%
4 | Cc1cc(-n2cc(CN3CCN[C@H](c4ccc5c(c4C)COC5=O)C3)cn2)ncc1C#N | 90% | 96% | – | – | – | –
5 | N#Cc1ccc(-c2ccc3c(c2)CCN(C[C@H](O)c2ccc4c(c2)COC4=O)C3)cc1F | – | – | 0.032 µM | – | 97% | –
6 | Cc1cc(-n2cc(CN3CCNC(c4ccc5c(c4C)COC5=O)C3C)cn2)ncc1C#N (stereo not given) | 62% | 46% | – | Active | 45% | –
7 | Cc1cc(-n2ncc(CN3CCN[C@H](c4ccc5c(c4C)COC5=O)C3)n2)ncc1C#N | 100% | 100% | – | – | – | –
8 | COc1c(CNC[C@H](O)c2ccc3c(c2C)COC3=O)cnn1-c1cc(C)c(C#N)cn1 | – | – | – | – | 91% | –
9 | N#Cc1ccc(-c2ncc3c(n2)CCN(C[C@H](O)c2ccc4c(c2)COC4=O)C3)cc1F | 44% | 73% | 0.074 µM | – | 50% | –
10 | Cc1cc(-n2cc(CN3CCO[C@H](c4ccc5c(c4C)COC5=O)C3)cn2)ncc1C#N | 60% | 49% | – | – | 26% | –
11 | Cc1cc(-n2cc(CN3C[C@@H](c4ccc5c(c4C)COC5=O)OC(C)(C)C3)cn2)ncc1C#N | 56% | 44% | – | – | 13% | –
12 | Cc1cc(-n2cc(CN3C[C@H](CO)N[C@H](c4ccc5c(c4C)COC5=O)C3)cn2)ncc1C#N | 93% | 76% | – | Not Active | – | –
13 | Cc1cc(-n2cc(CN3CC(c4ccc5c(c4C)COC5=O)NCC3C)cn2)ncc1C#N (stereo not given) | – | – | – | Active | – | –

Further lines, with some results ahead:

Row | remaining at 10 min, 10 µM [1] | remaining at 10 min, 10 µM [3] | IC50 [5] | Activity [6] | Structure (SMILES) | inhibition at 1 µM (hERG (KCNH2) [2]) | inhibition at 10 µM (hERG (KCNH2) [4])
14 | 7% | 40% | – | – | Cc1c([C@@H](O)CN(C)Cc2ccc(-c3ccc(C#N)c(F)c3)nc2)ccc2c1COC2=O | 68% | –
15 | 72% | 86% | – | – | Cc1cc(-n2cc(CNC[C@H](O)c3ccc4c(c3C)COC4=O)cn2)ncc1C#N | – | –
16 | 84% | 100% | 0.03 µM | – | Cc1cc(-n2cc(CN3CC(O)C(c4ccc5c(c4C)COC5=O)C3)cn2)ncc1C#N (stereo not given) | 58% | –
17 | 75% | 64% | – | Not Active | Cc1cc(-n2cc(CN3CC[C@@H](O)[C@H](c4ccc5c(c4C)COC5=O)C3)cn2)ncc1C#N | – | –
18 | 46% | 90% | – | – | Cc1cc(-c2ccc(CNC[C@H](O)c3ccc4c(c3C)COC4=O)cn2)ncc1C#N | – | 71%
19 | 33% | 85% | – | – | Cc1cc(-c2ncc(CNC[C@H](O)c3ccc4c(c3C)COC4=O)s2)ncc1C#N | – | 72%
20 | 1% | 12% | 0.43 µM | – | Cc1cc(-n2ccc(CNC[C@H](O)c3ccc4c(c3C)COC4=O)n2)ncc1C#N | – | 59%
21 | 67% | 97% | 0.046 µM | – | Cc1cc(-n2cnc(CNC[C@H](O)c3ccc4c(c3C)COC4=O)c2)ncc1C#N | – | 72%
22 | 51% | 75% | – | – | Cc1c([C@@H](O)CNCc2ccc(-c3ccc(C#N)c(F)c3)nc2)ccc2c1COC2=O | 66% | –
23 | 1% | 18% | – | – | Cc1cc(-n2cc(CNC[C@H](O)c3ccc4c(c3C)COC4=O)c(C(F)F)n2)ncc1C#N | – | 77%
